From patent US8519149B2, “Tricyclic compounds as mPGES-1 inhibitors” (Glenmark Pharmaceuticals S.A., priority 2010, dated 2013)

Molecular target: T1, Recombinant human mPGES-1 (Homo sapiens, UniProt O14684)
T1 sequence (O14684 1-152): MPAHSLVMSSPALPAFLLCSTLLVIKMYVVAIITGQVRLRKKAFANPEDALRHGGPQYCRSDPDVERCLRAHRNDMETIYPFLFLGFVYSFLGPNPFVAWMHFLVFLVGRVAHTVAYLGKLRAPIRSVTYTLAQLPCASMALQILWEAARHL
Assay: In-vitro mPGES-1 enzyme inhibition assay (PGE2 formation from PGH2, HTRF detection)
Format: biochemical
Conditions: for inhibition at 1 µM: 1 μM test compound, read-out: Percentage inhibition at 1 μM; for inhibition at 1 µM / inhibition at 10 µM: recombinant human mPGES-1 microsomal fraction; for inhibition at 10 µM: 10 μM test compound, read-out: Percentage inhibition at 10 μM; for IC50: class symbols, selected examples
How it was run: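 IC50 values were derived by nonlinear regression of percent inhibition relative to enzyme reactions run without inhibitor. PGE2 formed from PGH2 with GSH was quantified by antibody-based HTRF after stannous chloride quench. Enzyme source was human mPGES-1 microsomes at 40-60 μg/mL protein; DMSO 0.5% (v/v).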

Molecule Cc1cc(C(F)(F)F)ccc1NC(=O)c1cc2nc(Nc3c(F)cccc3Cl)[nH]c2c2c1OC(C)(C)C2 [Example-113, 2-[(2-Chloro-6-fluorophenyl)amino]-7,7-dimethyl-N-[2-methyl-4-(trifluoromethyl)phenyl]-7,8-dihydro-1H-furo[3,2-e]benzimidazole-5-carboxamide] has an inhibition at 1 µM of 99.4%, an inhibition at 10 µM of 98.7% and an IC50 of under 50 nM.
Cc1cccc(Cl)c1Nc1nc2cc(C(=O)Nc3ccc(C(F)(F)F)cc3)c3c(c2[nH]1)CC(C)(C)O3 [Example-108, 2-[(2-Chloro-6-methylphenyl)amino]-7,7-dimethyl-N-[4-(trifluoromethyl)phenyl]-7,8-dihydro-1H-furo[3,2-e]benzimidazole-5-carboxamide] gave an inhibition at 1 µM of 93.9%, an inhibition at 10 µM of 96.3% and an IC50 of under 50 nM.
With CCCCCNC(=O)c1cc2nc(Nc3c(Cl)cccc3Cl)[nH]c2c2c1OC(C)(C)C2 [Example-9, 2-[(2,6-Dichlorophenyl)amino]-7,7-dimethyl-N-pentyl-7,8-dihydro-1H-furo[3,2-e]benzimidazole-5-carboxamide] the inhibition at 1 µM was 83%, the inhibition at 10 µM was 83.1% and the IC50 was under 50 nM.
CC1(C)Cc2c(c(C(=O)Nc3nc4ccc(F)cc4s3)cc3nc(Nc4c(Cl)cccc4Cl)[nH]c23)O1 [Example-95, 2-[(2,6-Dichlorophenyl)amino]-N-(6-fluoro-1,3-benzothiazol-2-yl)-7,7-dimethyl-7,8-dihydro-1H-furo[3,2-e]benzimidazole-5-carboxamide] gave an inhibition at 1 µM of 90.6%, an inhibition at 10 µM of 91.8% and an IC50 of under 50 nM.
For CC1(C)Cc2c(c(C(=O)NCc3ccc(F)cc3)cc3nc(Nc4c(F)cccc4Cl)[nH]c23)O1 [Example-39, 2-[(2-Chloro-6-fluorophenyl)amino]-N-(4-fluorobenzyl)-7,7-dimethyl-7,8-dihydro-1H-furo[3,2-e]benzimidazole-5-carboxamide], the inhibition at 1 µM was 92.5%, the inhibition at 10 µM was 70.7% and the IC50 was under 50 nM.
CC(C)CCNC(=O)c1cc2nc(Nc3c(Cl)cccc3Cl)[nH]c2c2c1OC(C)(C)C2 [Example-46, 2-[(2,6-Dichlorophenyl)amino]-7,7-dimethyl-N-(3-methylbutyl)-7,8-dihydro-1H-furo[3,2-e]benzimidazole-5-carboxamide] gave an inhibition at 1 µM of 100%, an inhibition at 10 µM of 100% and an IC50 of under 50 nM.
In the case of CC1(C)Cc2c(c(C(=O)Nc3ccc(Cl)cc3)cc3nc(Nc4c(Cl)cncc4Cl)[nH]c23)O1 [Example-15, N-(4-Chlorophenyl)-2-[(3,5-dichloropyridin-4-yl)amino]-7,7-dimethyl-7,8-dihydro-1H-furo[3,2-e]benzimidazole-5-carboxamide], the inhibition at 1 µM is reported as 97.5%, the inhibition at 10 µM is reported as 95.5% and the IC50 is reported as under 50 nM.
CC1(C)Cc2c(c(C(=O)Nc3ccc(F)c(F)c3F)cc3nc(Nc4c(Cl)cncc4Cl)[nH]c23)O1 [Example-212, 2-((3,5-Dichloropyridin-4-yl)amino)-7,7-dimethyl-N-(2,3,4-trifluorophenyl)-7,8-dihydro-1H-benzofuro[4,5-d]imidazole-5-carboxamide] was tested, and the inhibition at 1 µM was 95.1%, the inhibition at 10 µM was 98.8% and the IC50 was under 50 nM.
For CC1(C)Cc2c(c(-c3nc(-c4ccc(F)c(Cl)c4)no3)cc3nc(Nc4c(Cl)cccc4Cl)[nH]c23)O1 [Example-161, 5-(3-(3-Chloro-4-fluorophenyl)-1,2,4-oxadiazol-5-yl)-N-(2,6-dichlorophenyl)-7,7-dimethyl-7,8-dihydro-1H-benzofuro[4,5-d]imidazol-2-amine], the inhibition at 1 µM was 79.2%, the inhibition at 10 µM was 88% and the IC50 was over 100 nM.
C[C@@H](NC(=O)c1cc2nc(Nc3c(Cl)cncc3Cl)[nH]c2c2c1OC(C)(C)C2)C(C)(C)C [Example-6] showed an inhibition at 1 µM of 93.4%, an inhibition at 10 µM of 95.5% and an IC50 of under 50 nM.
In the case of CC1(C)Cc2c(c(C(=O)Nc3cccc(C(F)(F)F)c3)cc3nc(NCc4ccccc4Cl)[nH]c23)O1 [Example-144, 2-((2-Chlorobenzyl)amino)-7,7-dimethyl-N-(3-(trifluoromethyl)phenyl)-7,8-dihydro-1H-benzofuro[4,5-d]imidazole-5-carboxamide], the inhibition at 1 µM is reported as 37.3% and the inhibition at 10 µM is reported as 46%.
Cc1nc2c(o1)c(C(=O)Nc1ccc(F)cc1)cc1nc(Nc3c(Cl)cccc3Cl)[nH]c12 [Example-177, 7-[(2,6-Dichlorophenyl)amino]-N-(4-fluorophenyl)-2-methyl-8H-imidazo[4,5-e][1,3]benzoxazole-4-carboxamide] was tested, and the inhibition at 1 µM was 80.8%, the inhibition at 10 µM was 89.4% and the IC50 was under 50 nM.
CC1(C)Cc2c(c(C(=O)Nc3cc(C(F)(F)F)ccc3F)cc3nc(Nc4c(F)cccc4Cl)[nH]c23)O1 [Example-111, 2-[(2-Chloro-6-fluorophenyl)amino]-N-[2-fluoro-5-(trifluoromethyl)phenyl]-7,7-dimethyl-7,8-dihydro-1H-furo[3,2-e]benzimidazole-5-carboxamide] gave an inhibition at 1 µM of 96.4%, an inhibition at 10 µM of 99.8% and an IC50 of under 50 nM.
Molecule CC1(C)Cc2c(c(C(=O)Nc3cccc(F)c3)cc3nc(Nc4c(F)cccc4Cl)[nH]c23)O1 [Example-56, 2-[(2-Chloro-6-fluorophenyl)amino]-N-(3-fluorophenyl)-7,7-dimethyl-7,8-dihydro-1H-furo[3,2-e]benzimidazole-5-carboxamide] has an inhibition at 1 µM of 96%, an inhibition at 10 µM of 98.2% and an IC50 of under 50 nM.
Cn1c(Nc2c(Cl)cncc2Cl)nc2cc(C(=O)Nc3cc(C4CC4)ccc3F)c3c(c21)CC(C)(C)O3 [Example-217, N-(5-Cyclopropyl-2-fluorophenyl)-2-((3,5-dichloropyridin-4-yl)amino)-1,7,7-trimethyl-7,8-dihydro-1H-benzofuro[4,5-d]imidazole-5-carboxamide] was tested, and the inhibition at 1 µM was 96.2% and the inhibition at 10 µM was 99.9%.
Cc1cccc(Cl)c1Nc1nc2cc(C(=O)Nc3ccc(C(F)(F)F)nc3)c3c(c2[nH]1)CC(C)(C)O3 [Example-160, 2-((2-Chloro-6-methylphenyl)amino)-7,7-dimethyl-N-(6-(trifluoromethyl)pyridin-3-yl)-7,8-dihydro-1H-benzofuro[4,5-d]imidazole-5-carboxamide] showed an inhibition at 1 µM of 99.2%, an inhibition at 10 µM of 100% and an IC50 of 50 to 100 nM.
CC1(C)Cc2c(c(C(=O)NCc3ccccc3C(F)(F)F)cc3nc(Nc4ccccc4Cl)[nH]c23)O1 [Example-88, 2-[(2-Chlorophenyl)amino]-7,7-dimethyl-N-[2-(trifluoromethyl)benzyl]-7,8-dihydro-1H-furo[3,2-e]benzimidazole-5-carboxamide] was tested, and the inhibition at 1 µM was 85.5%, the inhibition at 10 µM was 99.4% and the IC50 was over 100 nM.
CC1(C)Cc2c(c(C(=O)NC3CCC(F)(F)CC3)cc3nc(Nc4c(Cl)cccc4Cl)[nH]c23)O1 [Example-93, 2-[(2,6-Dichlorophenyl)amino]-N-(4,4-difluorocyclohexyl)-7,7-dimethyl-7,8-dihydro-1H-furo[3,2-e]benzimidazole-5-carboxamide] was tested, and the inhibition at 1 µM was 83.1% and the inhibition at 10 µM was 80.9%.
In the case of CC1(C)Cc2c(c(C(=O)NCCF)cc3nc(Nc4c(Cl)cccc4Cl)[nH]c23)O1 [Example-63, 2-[(2,6-Dichlorophenyl)amino]-N-(2-fluoroethyl)-7,7-dimethyl-7,8-dihydro-1H-furo[3,2-e]benzimidazole-5-carboxamide], the inhibition at 1 µM is reported as 88%, the inhibition at 10 µM is reported as 96.6% and the IC50 is reported as 50 to 100 nM.
